This series concerns CCRIS mutagenicity, Ames/micronucleus/aberration tests. The experiment in a line: CCRIS mutagenicity studies.

Activity calls are given as the source filed them. The rule behind the calls is not given here.

`Cc1ccc(N)c(S(=O)(=O)O)c1`: the mutagenic call reads like this: (Test System: AMES SALMONELLA TYPHIMURIUM, Strain/Indicator: TA98, Metabolic Activation: HAMSTER, LIVER, S-9, AROCLOR 1254, Method: STANDARD PLATE) “inactive; negative”; (Test System: AMES SALMONELLA TYPHIMURIUM, Strain/Indicator: TA98, Metabolic Activation: NONE, Method: PREINCUBATION) “inactive; negative”; (Test System: AMES SALMONELLA TYPHIMURIUM, Strain/Indicator: TA98, Metabolic Activation: NONE, Method: STANDARD PLATE) “inactive; negative”; (Test System: AMES SALMONELLA TYPHIMURIUM, Strain/Indicator: TA98, Metabolic Activation: RAT LIVER S-9, PHENOBARBITAL AND BETA-NAPHTHOFLAVONE, Method: PREINCUBATION) “inactive; negative”; (Test System: AMES SALMONELLA TYPHIMURIUM, Strain/Indicator: TA98, Metabolic Activation: RAT, LIVER, S-9, AROCLOR 1254, Method: STANDARD PLATE) “inactive; negative”; (Test System: AMES SALMONELLA TYPHIMURIUM, Strain/Indicator: TA100, Metabolic Activation: HAMSTER, LIVER, S-9, AROCLOR 1254, Method: STANDARD PLATE) “inactive; negative”. The mutagenic call was “inactive; negative” (Test System: AMES SALMONELLA TYPHIMURIUM, Strain/Indicator: TA100, Metabolic Activation: NONE, Method: PREINCUBATION); “inactive; negative” (Test System: AMES SALMONELLA TYPHIMURIUM, Strain/Indicator: TA100, Metabolic Activation: NONE, Method: STANDARD PLATE); “inactive; negative” (Test System: AMES SALMONELLA TYPHIMURIUM, Strain/Indicator: TA100, Metabolic Activation: RAT LIVER S-9, PHENOBARBITAL AND BETA-NAPHTHOFLAVONE, Method: PREINCUBATION); “inactive; negative” (Test System: AMES SALMONELLA TYPHIMURIUM, Strain/Indicator: TA100, Metabolic Activation: RAT, LIVER, S-9, AROCLOR 1254, Method: STANDARD PLATE); “inactive; negative” (Test System: AMES SALMONELLA TYPHIMURIUM, Strain/Indicator: TA102, Metabolic Activation: NONE, Method: PREINCUBATION); “inactive; negative” (Test System: AMES SALMONELLA TYPHIMURIUM, Strain/Indicator: TA102, Metabolic Activation: RAT LIVER S-9, PHENOBARBITAL AND BETA-NAPHTHOFLAVONE, Method: PREINCUBATION). In addition, the mutagenic call was “inactive; negative” (Test System: AMES SALMONELLA TYPHIMURIUM, Strain/Indicator: TA104, Metabolic Activation: NONE, Method: PREINCUBATION); “inactive; negative” (Test System: AMES SALMONELLA TYPHIMURIUM, Strain/Indicator: TA104, Metabolic Activation: RAT LIVER S-9, PHENOBARBITAL AND BETA-NAPHTHOFLAVONE, Method: PREINCUBATION); “inactive; negative” (Test System: AMES SALMONELLA TYPHIMURIUM, Strain/Indicator: TA1535, Metabolic Activation: HAMSTER, LIVER, S-9, AROCLOR 1254, Method: STANDARD PLATE); “inactive; negative” (Test System: AMES SALMONELLA TYPHIMURIUM, Strain/Indicator: TA1535, Metabolic Activation: NONE, Method: PREINCUBATION); “inactive; negative” (Test System: AMES SALMONELLA TYPHIMURIUM, Strain/Indicator: TA1535, Metabolic Activation: NONE, Method: STANDARD PLATE); “inactive; negative” (Test System: AMES SALMONELLA TYPHIMURIUM, Strain/Indicator: TA1535, Metabolic Activation: RAT LIVER S-9, PHENOBARBITAL AND BETA-NAPHTHOFLAVONE, Method: PREINCUBATION). Moreover, the mutagenic call is “inactive; negative” (Test System: AMES SALMONELLA TYPHIMURIUM, Strain/Indicator: TA1535, Metabolic Activation: RAT, LIVER, S-9, AROCLOR 1254, Method: STANDARD PLATE); “inactive; negative” (Test System: AMES SALMONELLA TYPHIMURIUM, Strain/Indicator: TA1537, Metabolic Activation: HAMSTER, LIVER, S-9, AROCLOR 1254, Method: STANDARD PLATE); “inactive; negative” (Test System: AMES SALMONELLA TYPHIMURIUM, Strain/Indicator: TA1537, Metabolic Activation: NONE, Method: PREINCUBATION); “inactive; negative” (Test System: AMES SALMONELLA TYPHIMURIUM, Strain/Indicator: TA1537, Metabolic Activation: NONE, Method: STANDARD PLATE); “inactive; negative” (Test System: AMES SALMONELLA TYPHIMURIUM, Strain/Indicator: TA1537, Metabolic Activation: RAT LIVER S-9, PHENOBARBITAL AND BETA-NAPHTHOFLAVONE, Method: PREINCUBATION); “inactive; negative” (Test System: AMES SALMONELLA TYPHIMURIUM, Strain/Indicator: TA1537, Metabolic Activation: RAT, LIVER, S-9, AROCLOR 1254, Method: STANDARD PLATE). Moreover, the mutagenic call (Test System: AMES SALMONELLA TYPHIMURIUM, Strain/Indicator: TA1538, Metabolic Activation: HAMSTER, LIVER, S-9, AROCLOR 1254, Method: STANDARD PLATE) is “inactive; negative”; the mutagenic call (Test System: AMES SALMONELLA TYPHIMURIUM, Strain/Indicator: TA1538, Metabolic Activation: NONE, Method: STANDARD PLATE) was “inactive; negative”; the mutagenic call (Test System: AMES SALMONELLA TYPHIMURIUM, Strain/Indicator: TA1538, Metabolic Activation: RAT, LIVER, S-9, AROCLOR 1254, Method: STANDARD PLATE) was “inactive; negative”; the mutagenic call (Test System: E.COLI, Strain/Indicator: WP2UVRA/PKM101, Metabolic Activation: NONE, Method: PREINCUBATION) was “inactive; negative”; the mutagenic call (Test System: E.COLI, Strain/Indicator: WP2UVRA/PKM101, Metabolic Activation: RAT LIVER S-9, PHENOBARBITAL AND BETA-NAPHTHOFLAVONE, Method: PREINCUBATION) is “inactive; negative”; the mutagenic call (Test System: E.COLI, Strain/Indicator: WP2UVRA, Metabolic Activation: NONE, Method: PREINCUBATION) was “inactive; negative”. The mutagenic call was “inactive; negative” (Test System: E.COLI, Strain/Indicator: WP2UVRA, Metabolic Activation: RAT LIVER S-9, PHENOBARBITAL AND BETA-NAPHTHOFLAVONE, Method: PREINCUBATION); “inactive; negative. reevaluation of results: negative” (Test System: MOUSE LYMPHOMA, Strain/Indicator: L5178Y (TK+/TK-), Metabolic Activation: NONE, Method: SUSPENSION/PLATE); “inactive; negative. reevaluation of results: equivocal” (Test System: MOUSE LYMPHOMA, Strain/Indicator: L5178Y (TK+/TK-), Metabolic Activation: RAT, LIVER, S-9, AROCLOR 1254, Method: SUSPENSION/PLATE); “inactive; negative” (Test System: UDS RODENT HEPATOCYTES, Strain/Indicator: THY INCORP (NON-S-PHASE), Metabolic Activation: NONE, Method: AUTORADIOGRAPHY).

For `CC(=O)Nc1ccc(-c2ccc(NO)cc2)cc1`, the mutagenic call (Test System: CHINESE HAMSTER OVARY, Strain/Indicator: CHO-K1-BH4 (HGPRT), Metabolic Activation: NONE, Method: SUSPENSION) is “active; positive”.
